Laboratory results published in US8771723B2, “Compositions for reducing gastro-intestinal methanogenesis in ruminants” (priority 2009, dated 2014).
“And” between values parts separate entries of the source, which are not always exact repeats. Equal entries are not always repeated. Marks after values point to notes of the source that are not given here.

Columns and labels:
[1] = Blood methaemoglobin in cows supplemented with nitrate and sulphate; assay type: in vivo
Procedure: The experiment was a randomized block design, with 4 animals per block and different sulphate doses as treatments. Animals were blocked by milk yield and subsequently within a block randomly allotted to one of four dietary treatments: NO3, NO3+low SO4, NO3+medium SO4, NO3+high SO4.
The dietary additives were included in the premix (table 5). At feeding, the premixes were delivered to cows as part of a Total Mixed Ration. Water was freely available during the experiment.
Blood was sampled 3 h post-feeding twice a week throughout the experiment to closely monitor the concentration of methaemoglobin. Blood was collected into evacuated tubes containing heparin, plunged immediately into ice-cold water and stored in a refrigerator at 4 C. At the end of each sampling day, samples were dispatched for analysis and were analyzed the next day.

[2] = Feed intake, CO2/O2 exchange and heat production in respiration chambers; assay type: in vivo, male Texel Cross lambs
Procedure: After the adaptation period four animals (one block) were housed in indirect respiration calorimetry chambers for a week to determine gaseous exchange. In the following weeks a new block of sheep was introduced to the chambers each week. Each respiration chamber housed an individual sheep. The respiration calorimetry chambers used are described in detail in […] et al. (1987). […] Net production or consumption of these gases was calculated from the difference in concentrations between in and outgoing air multiplied by air flow and subsequently recalculated to standard circumstances (0° C., 101 kPa, no water vapour). […] Before morning feeding, orts were removed from the feed bins and weighed to determine voluntary feed intake. During the week in the respiration chambers, feed availability was restricted to 95% of the feed consumed by the animal consuming the least feed within a block in the week prior to housing in the respiration chambers. Feed restriction was applied to avoid interactions between the effect of the additives on DMI and the effect on methane production.

methanogens = assay: Enteric methanogen counts; conditions: in vivo
rumen microbes = assay: In vitro rumen fermentation simulation; assay type: cell-based, cow
Procedure: Feed used in rumen simulation was 1 gram of dry matter and composed of grass silage (0.5 g dry matter) and commercial compound feed, 0.5 g dry matter. The treatments were as indicate in the following table: […] All the treatments were run in quadruplicates, the total number of simulation vessels being 72. […] Finally, 2 ml of fresh, strained rumen fluid was added in the serum bottles, the final volume being 40 ml. This inoculation started the actual rumen simulation. Inoculation time for each vessel was registered and taken into account when sampling and stopping the fermentation. Rumen fermentation simulation was continued for 12 hours at 37° C. […] These samples were analysed for methane to see the effect of treatments on the total methane produced by rumen bacteria during the 12 hours. The analysis was performed by gas chromatography using flame ionisation detector and pure methane and ethane as standards. NO3 and NO2 were analysed from all simulation vessels at 0, 2, 4 and 12 hours. […] NH4 was analysed from all simulation vessels at 0, 2, 4 and 12 hours. The method was colorimetric and based on phenol-hypochlorite reaction. Statistical analysis consisted of two-tailed t-tests for all measured parameters. The tests were performed against the treatment with […] and MgSO4 amendment (treatments 2 and 17). t-test was chosen to let the individual treatments be independent of the other treatments tested simultaneously.

[3] = Feed intake and growth during the 4-week adaptation to dietary nitrate and sulphate; assay type: in vivo, male Texel Cross lambs; conditions: for Feed intake: main effect, additive in diet (Yes); for Effect on body weight gain: adaptation stage; for Body weight (BW) / Body weight gain (BWG) overall / Body weight gain (BWG): main effect (Yes); for Body weight gain (BWG) overall: overall adaptation stage
Excerpt: Feed intake and growth were monitored during the experiment. […] The Animal Care and Use Committee of the Animal Sciences Group, WUR, Lelystad approved the experimental protocol of this experiment. […] During a four-week adaptation phase to the dietary additives, animals were housed in individual calf hutches to allow individual feeding. Sheep were weighed weekly to monitor growth during the entire experiment. […] Animals were blocked by weight and subsequently within a block randomly allotted to one of four dietary treatments: CON, NO3, SO4 or NO3+SO4. […] At feeding, the premixes were hand-mixed into the diets. Water was freely available during the experiment. […] Before morning feeding, orts were removed from the feed bins and weighed to determine voluntary feed intake. During the week in the respiration chambers, feed availability was restricted to 95% of the feed consumed by the animal consuming the least feed within a block in the week prior to housing in the respiration chambers. Feed restriction was applied to avoid interactions between the effect of the additives on DMI and the effect on methane production. […] Limestone was added to the control diet to ensure equal Ca-intake between treatments. MgO was included in the diet to obtain similar Mg-levels between diets. The volume of the different additions to the diets was different for each treatment, and wood cellulose was used to balance for this.

[4] = Methemoglobin content of blood during adaptation period
Procedure: Blood was sampled at d2, d8, d15, d22 and d28 at 1, 3 and 5 h post-feeding. […] Blood samples were taken in heparin containing collection tubes (Vacutainers) and stored in the refrigerator directly after sampling. At the end of the sampling day, samples were dispatched for analyses and were analyzed the next day.

[5] = cited from earlier work
[6] = test system: methane emissions from enteric fermentation; assay: Methane production in indirect respiration calorimetry chambers; assay type: in vivo, male Texel Cross lambs; conditions: for Actual decrease in methane production as CH4 mass: CH4=0.714 g/l; for Methane production rate over 24 h versus control: fed once daily, nitrate: immediately after feeding, SO4: entire 24 h-period; for Actual decrease in methane production / Reduction in daily methane production: respiration chambers; for Actual decrease in methane production: 24.9 g NO3 or 27.0 g SO4 consumed per day; for Reduction in daily methane production: addition to the diet
Excerpt: Feed intake and growth were monitored during the experiment. […] After the adaptation period four animals (one block) were housed in indirect respiration calorimetry chambers for a week to determine gaseous exchange. In the following weeks a new block of sheep was introduced to the chambers each week. Each respiration chamber housed an individual sheep. The respiration calorimetry chambers used are described in detail in […] et al. (1987). […] Net production or consumption of these gases was calculated from the difference in concentrations between in and outgoing air multiplied by air flow and subsequently recalculated to standard circumstances (0° C., 101 kPa, no water vapour). […] Animals were blocked by weight and subsequently within a block randomly allotted to one of four dietary treatments: CON, NO3, SO4 or NO3+SO4. During the adaptation phase, sheep were introduced to the experimental premixes in steps of 25% per week. […] Before morning feeding, orts were removed from the feed bins and weighed to determine voluntary feed intake. During the week in the respiration chambers, feed availability was restricted to 95% of the feed consumed by the animal consuming the least feed within a block in the week prior to housing in the respiration chambers. Feed restriction was applied to avoid interactions between the effect of the additives on DMI and the effect on methane production.

Compound	effect on enteric methanogen counts (methanogens)	Feed intake ([3]; Week 1 of adaptation)	Feed intake ([3]; Week 2 of adaptation)	Feed intake ([3]; Week 3 of adaptation)	Feed intake ([3]; Week 4 of adaptation)	Effect on body weight gain [3]	Body weight (BW) ([3]; day 0)	Body weight (BW) ([3]; day 7)	Body weight (BW) ([3]; day 14)	Body weight (BW) ([3]; day 21)	Body weight (BW) ([3]; day 28)	Body weight gain (BWG) overall [3]	Body weight gain (BWG) ([3]; week 1)	Body weight gain (BWG) ([3]; week 2)	Body weight gain (BWG) ([3]; week 3)	Body weight gain (BWG) ([3]; week 4)	Actual decrease in methane production as CH4 mass [6]	Methane production rate over 24 h versus control [6]	Actual decrease in methane production [6]	Reduction in daily methane production [6]	other results
5Ca(NO3)2•NH4NO3•10H2O [Nitrate]	reduce enteric methanogen counts	2686 g/lamb/day	2591 g/lamb/day	2526 g/lamb/day	2411 g/lamb/day	did not affect body weight gain	43.0 kg/lamb	43.6 kg/lamb	44.7 kg/lamb	45.2 kg/lamb	45.5 kg/lamb	2.46 kg/lamb/week	0.54 kg/lamb/week	1.08 kg/lamb/week	0.59 kg/lamb/week	0.25 kg/lamb/week	5.8 g	remained at a far lower level	8.1 L	34%	rise in blood methaemoglobin ([1]; 100% inclusion rate of nitrate): more pronounced; Blood methaemoglobin ([1]; cows, diets with 3% NO3 of DM and increasing SO4 (table 5)): 13.1^a % of haemoglobin; Oxygen consumption lower than control ([2]; directly after feeding at 8 AM): 10-18%; MetHb-levels estimated from oxygen consumption ([2]; regression equation of Takahashi et al., 1998): approximately 5%; Reduction in oxygen consumption ([2]; respiration chambers, daily): 6%; suppression of absolute methane production (rumen microbes; 12-hour simulation (FIG. 5A)): ~80%; total produced methane (rumen microbes; 12-hour simulation, 14 mM nitrate): 1.5 mL; residual concentration of ammonium (rumen microbes; 12 hours, 14 mM nitrate added (FIG. 8C)): 18 mM; Feed intake reduction ([3]; period beyond week 1 (more than 25% of final inclusion rate)): approximately 9%; blood MetHb-content ([4]; 75% of the inclusion rate, 3 h post feeding, one sheep tested positive): 3 % of Hb; MetHb-values ([4]; 100% inclusion rate for one week (d28), 3 h post-feeding, two individual sheep tested positive, listed as NO3): 7 % of Hb and 3 % of Hb; MetHb-levels, highest observed ([4]; whole experiment, detection limit 2% of Hb): ≤ 7 % of Hb; MetHb-levels ([5]; Sar et al. (2004), 0.9 g NO3/kg^0.75 of BW intraruminally, no adaptation): 18.4 % of Hb
O=S(=O)([O-])[O-].[Mg+2] [Sulphate, MgSO4 (anhydrous)]	does not	2724 g/lamb/day	2770 g/lamb/day	2618 g/lamb/day	2457 g/lamb/day	did not affect body weight gain	42.4 kg/lamb	43.1 kg/lamb	44.3 kg/lamb	44.7 kg/lamb	44.8 kg/lamb	2.34 kg/lamb/week	0.70 kg/lamb/week	1.20 kg/lamb/week	0.38 kg/lamb/week	0.06 kg/lamb/week	2.9 g	consistently lower than the control treatment	4 L	19%	
O=[N+]([O-])[O-].[Na+] [NaNO3, reference compound]																					Concentrations of MetHb ([5]; Takahashi et al., 1998, 1.5 g/kg BW^0.75 into the rumen): over 30%
CC(O)C(=O)O (centres unmarked) [lactic acid, Na-lactate]																					gas production, initial (rumen microbes; first 4 hours, compared to the nitrate enriched treatment (Calcinit + MgSO4)): suppressed; cumulative gas production, later time points (rumen microbes; later time points up to 12 h, compared to Calcinit + MgSO4): continued to suppress gas production dose dependently
